Source: patent US8299028B2, “Chimeric peptide antagonist for GPCR135 or GPCR142” (Janssen Pharmaceutica NV, priority 2007, dated 2012)

Key:
satiated Wistar rats = assay: Food intake in satiated Wistar rats after i.c.v. administration; assay type: in vivo, rat; details: 10 μg i.c.v.
Procedure: FIG. 6 illustrates food consumption in satiated Wistar rats during the first hour of the test session (i.e., Day 2) following i.c.v. administration of vehicle (5 μL)+vehicle (5 μL), vehicle (5 μl)+R3/I5 (10 μg), R3(BΔ23-27)R/I5 (10 μg)+vehicle (5 μl), and R3(BΔ23-27)R/I5 (10 μg)+R3/I5 (10 μg) (mean±SEM; n=5-6 per group) (A).
Experimentally naïve, male Wistar rats (Charles River, Wilmington, Mass.) weighing 200-225 grams at the time of arrival were used. The animals were initially housed at two per cage and given a one-week acclimation period to the vivarium prior to i.c.v. cannula implantation. All animals had free access to food and water throughout the experiment and were not food deprived prior to behavioral testing. The animal colony was maintained at 22±2° C. during a 12-hr light/12-hr dark illumination cycle with lights on from 0600 to 1800 hours. […]
A predetermined amount of standard rat chow (Formulab Diet No. 5008, which contained 23.0% protein and 6.5% fat) was placed in the food hopper at the start of the 4 hr session(s). The amount of food remaining in the food hopper was determined by subtracting the weight of the food at 1 and 4 hrs from the initial food weight (i.e., weight of the food at the start of the session). Food crumbs detected on the floor of the apparatus were included in the determination of food weights. […]

[1] = target: T1, endogenous GPCR135 from rat brain slices (Rattus norvegicus, UniProt Q5Y987); assay: Autoradiography, displacement of 125I-R3/I5 binding on rat brain slices; details: at 10 nM
T1 construct: using endogenous GPCR135 from rat brain slices in autoradiographic studies; from tissue; host or cells: rat brain slices
T1 sequence (Q5Y987 1-469): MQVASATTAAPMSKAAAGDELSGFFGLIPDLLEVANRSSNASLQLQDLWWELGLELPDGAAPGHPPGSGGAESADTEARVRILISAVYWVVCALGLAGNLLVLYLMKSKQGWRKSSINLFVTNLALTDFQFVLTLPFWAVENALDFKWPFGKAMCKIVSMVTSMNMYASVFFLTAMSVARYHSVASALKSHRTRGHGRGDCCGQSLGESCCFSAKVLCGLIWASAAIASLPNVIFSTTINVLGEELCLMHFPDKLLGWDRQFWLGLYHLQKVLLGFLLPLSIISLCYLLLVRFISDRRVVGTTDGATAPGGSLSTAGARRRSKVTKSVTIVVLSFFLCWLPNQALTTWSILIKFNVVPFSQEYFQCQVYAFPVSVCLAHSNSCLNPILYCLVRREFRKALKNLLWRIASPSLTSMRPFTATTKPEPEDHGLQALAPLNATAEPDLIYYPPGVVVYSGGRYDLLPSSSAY
Procedure: FIG. 5 provides autoradiograms of ^125I-R3/I5 binding sites in the rat brain (A) with competition by relaxin-3 (10 nM, B) or R3(BΔ23-27)R/I5 (10 nM, C), and a dose-response curve for R3(BΔ23-27)R/I5 as the competitor in the binding assay on rat brain slices (D). A dose-response curve for human relaxin-3 is included for comparison (D). Nonspecific binding was determined using 1 μM unlabeled relaxin-3.
R3(BΔ23-27)R/I5 peptide was evaluated pharmacologically using endogenous GPCR135 from rat brain slices in autoradiographic studies as described by Sutton et al., 2004. Briefly, ^125I-R3/I5 was applied in a binding buffer to rat brain slices. Unlabeled human relaxin-3 or R3(BΔ23-27)R/I5 was used at various concentrations as competitors to displace GPCR135 binding of ^125I-R3/I5.

R3/I5: Chimeric peptide of relaxin-3 B-chain (SEQ ID NO:12) and INSL5 A-chain (SEQ ID NO:19); selective GPCR135 agonist (beta RAAPYGVRLCGREFIRAVIFTCGGSRW; alpha EDLQTLCCTDGCSMTDLSALC; INSL5 A-chain; listed as Homo Sapiens)
total food intake over 4 hours (satiated Wistar rats; 4 hours): food intake was stimulated
food intake, first hour (satiated Wistar rats; first hour): food intake was stimulated

Relaxin-3: Wild type human relaxin-3, B-chain SEQ ID NO:12, A-chain SEQ ID NO:13; positive control
displacement of 125I-R3/I5 binding sites in rat brain sections [1]: Full displacement
